In patent publication US11224561B2, “Skin cleansing composition” (KAO CORPORATION, priority 2017, dated 2022):

Legend:
[1] = Detergency against keratotic plug during cleansing: penetration of the sample into keratotic plugs; parameters: species or system human; details: samples of Table 1, contact for 1 minute
Description: Keratotic plugs in the nasal region were removed with “Biore Nose Pack (manufactured by Kao Corporation)”, the resulting keratotic plugs on the pack were gently taken out with tweezers. […] Consequently, the sample entered into the gap between the slide glass and the cover glass by capillary phenomenon and was brought into contact with the keratotic plugs. The contact of the keratotic plugs and the sample was recorded with a digital microscope (VHX-5000, manufactured by Keyence Corporation, magnification: 150×), and the penetration of the sample into the keratotic plugs and the collapse state of the keratotic plugs were evaluated after one minute from the contact of the keratotic plugs with the sample. The results of each evaluation are shown in the columns “Keratotic plug detergency (penetration)” and “Keratotic plug detergency (during cleansing)” in Tables. The measurements were performed at 25° C. The penetration was relatively evaluated by criteria with 11 ratings from the rating 1 “the sample hardly penetrated into the keratotic plug” to the rating 11 “the sample penetrated to the center of the keratotic plug”. The collapsibility by the detergency against keratotic plug was relatively evaluated by criteria with 11 ratings from the rating 1 “almost no change is observed in the external appearance of the keratotic plug” to the rating 11 “peeling or separation is observed in the area from the surface layer to the central portion of the keratotic plug (the initial appearance of the keratotic plug is not retained)”.

[2] = Detergency against keratotic plug after washing with water: collapse state; parameters: species or system human; details: samples of Table 1, washing with water
From the text: The penetration was relatively evaluated by criteria with 11 ratings from the rating 1 “the sample hardly penetrated into the keratotic plug” to the rating 11 “the sample penetrated to the center of the keratotic plug”. The collapsibility by the detergency against keratotic plug was relatively evaluated by criteria with 11 ratings from the rating 1 “almost no change is observed in the external appearance of the keratotic plug” to the rating 11 “peeling or separation is observed in the area from the surface layer to the central portion of the keratotic plug (the initial appearance of the keratotic plug is not retained)”. After one minute from the contact of the keratotic plugs with the sample, Kimwipes (registered trademark) was brought into contact with an edge of the cover glass to remove the sample under the cover glass. […] The results of the evaluation are shown in the column “Keratotic plug detergency (during washing with water)” in Table. The measurements were performed at 25° C.

[3] = at 25° C.; cited from earlier work
[4] = Detergency against keratotic plug during cleansing: collapse state of keratotic plugs; parameters: species or system human; details: samples of Table 1, contact for 1 minute
Description: Keratotic plugs in the nasal region were removed with “Biore Nose Pack (manufactured by Kao Corporation)”, the resulting keratotic plugs on the pack were gently taken out with tweezers.
The resulting keratotic plugs were placed on a slide glass and were covered with a cover glass, and 0.05 mL of a sample was dropwise added to an edge of the cover glass. Consequently, the sample entered into the gap between the slide glass and the cover glass by capillary phenomenon and was brought into contact with the keratotic plugs. The contact of the keratotic plugs and the sample was recorded with a digital microscope (VHX-5000, manufactured by Keyence Corporation, magnification: 150×), and the penetration of the sample into the keratotic plugs and the collapse state of the keratotic plugs were evaluated after one minute from the contact of the keratotic plugs with the sample. The results of each evaluation are shown in the columns “Keratotic plug detergency (penetration)” and “Keratotic plug detergency (during cleansing)” in Tables. The measurements were performed at 25° C.
The penetration was relatively evaluated by criteria with 11 ratings from the rating 1 “the sample hardly penetrated into the keratotic plug” to the rating 11 “the sample penetrated to the center of the keratotic plug”. The collapsibility by the detergency against keratotic plug was relatively evaluated by criteria with 11 ratings from the rating 1 “almost no change is observed in the external appearance of the keratotic plug” to the rating 11 “peeling or separation is observed in the area from the surface layer to the central portion of the keratotic plug (the initial appearance of the keratotic plug is not retained)”.

[5] = tested on: insoluble protein (seine protein); experiment: Effect of suppressing protein aggregation (precipitation of insoluble protein); details: sample of Table 1
Description: Thirty milliliters of a sample and 0.06 g of an insoluble protein (seine protein) were placed in a 35-mL standard glass bottle, and the concentration of the insoluble protein was adjusted to 0.2 mass % (test sample). Separately, a standard sample was prepared by using water instead of the sample and adjusting the concentration of the insoluble protein to 0.2 mass %. Subsequently, the standard glass bottles were sufficiently shaken and stirred up and down (shake width: 15 cm, 20 times at a rate of 5 times for 3 seconds) in a thermostatic chamber of 25° C. and were left to stand for 3 minutes. The precipitation state of the insoluble protein was then visually verified, and the ratio of the amount of the precipitated standard sample to the amount of the precipitated test sample (the height of the precipitate in each standard glass bottle was measured as the precipitation amount), (precipitation amount of standard sample)/(precipitation amount of test sample), was calculated. A higher ratio indicates a higher effect of suppressing protein aggregation.

| Molecule | penetration of the sample into keratotic plugs (in words) [1] | swelling of sample-treated keratotic plugs on contact with water (in words) [2] | pKa [3] | collapse of keratotic plugs in contact with the sample (in words) [4] | action on proteins (in words) [5] |
| --- | --- | --- | --- | --- | --- |
| CC(N)(CO)CO [AMPD, 2-amino-2-methyl-1,3-propanediol] | penetrated into keratotic plugs | swelled when contacted with water | – | – | – |
| CC(C)(N)CO [Component (X3)] | – | – | 9.72 | – | – |
| O=P([O-])([O-])O.[Na+].[Na+] [disodium hydrogen phosphate] | hardly penetrated into keratotic plugs | did not swell even when contacted with water | – | the collapse of the keratotic plugs did not progress | – |
| O=C([O-])O.[Na+] [sodium hydrogen carbonate] | hardly penetrated into keratotic plugs | did not swell even when contacted with water | – | the collapse of the keratotic plugs did not progress | – |
| O=P([O-])([O-])[O-].[Na+].[Na+].[Na+] [trisodium phosphate] | hardly penetrated into keratotic plugs | did not swell even when contacted with water | – | the collapse of the keratotic plugs did not progress | – |
| sodium polyoxyethylene (2) lauryl ether sulfate [POE (2) sodium lauryl sulfate] | hardly penetrated into the keratotic plugs | – | – | the collapse of the keratotic plugs did not progress | the action on proteins was strong to dissolve the proteins |
